Laboratory results from US20200261576A1, “APOPTOTIC CELL-MEDIATED INDUCTION OF ANTIGEN SPECIFIC REGULATORY T-CELLS FOR THE THERAPY OF AUTOIMMUNE DISEASES IN ANIMALS AND HUMANS” (The United States of America, as represented by the …, priority 2013, published 2020).

Assays:
SJL mice = assay: Prevention of EAE in SJL mice (treatment before immunization); assay type: in vivo
Procedure: Antibodies used for in vivo. Anti-CD4 (clone Gk1.5), anti-CD8 antibody (clone 53-6.72), anti-TGFβ antibody (clone ID11) and mouse IgG1 (clone MOPC-21) were purchased from Bio X cell. Anti-CD20 antibody (clone 5D2) was a gift from Genentech. T cell depletion studies in EAE disease models. For EAE prevention studies SJL/J mice were either untreated or treated with CD4− (100 μg/mouse) and CD8− (50 μg/mouse) specific antibody (T cell depletion antibody). Some mice were immediately injected i.p. with pPLP or pOVA (25 μg/mouse) or PBS every other day for 16 days. All mice were immunized with pPLP and CFA (day 0). For EAE treatment studies, SJL mice were treated with CD4- and CD8-specific antibody and 5 μg of pPLP, pOVA or PBS i.p. every other day from day 12 to day 26 following immunization with pPLP (day 0). For EAE prevention studies, SJL mice were treated with CD4- and CD8-specific antibody at day −21, and 25 μg of pPLP, pOVA or PBS i.p. every other day from day −18 to day −2 before immunization with pPLP (day 0). In C57BL/6 mice, same T cell depletion regimen was utilized but pMOG (10 μg mouse) was administered via i.p. In some mice, anti-TGFβ or isotype control antibody (mIgG1) (200 μg/mice each day) were injected i.p. one day after T cell depletion. […] Mice were monitored for clinical score of disease and sacrificed at indicated time points. […]

splenocytes = assay: Antigen-recall T cell proliferation and cytokine production of splenocytes from SJL EAE mice; assay type: cell-based; details: therapy model; splenocytes restimulated with pPLP
Procedure: Cytokine assays. Splenocytes were cultured at 37° C. in 5% CO2 for 2-3 days with either soluble CD3-specific antibody (anti-CD3) (0.5 μg/ml) or MT (heat-killed M. tuberculosis, H37RA, DIFCO) (50 μg/ml) or peptides (pMOG, pPLP) (0-50 μg/ml as indicated). Cytokines were quantified in culture supernatants by ELISA; TNF-α, IL-6, and IFN-γ (BioLegend) and IL-17 (eBioscience). EAE induction, scoring, analysis and in vitro cell cultures. Peptide-induced EAE was induced in SJL mice and C57BL/6 mice as previously reported^11,20. Individual mice were observed daily and clinical scores were assessed on a 0-5 scale as follows: 0, no abnormality; 1, limp tail or hind limb weakness; 2, limp tail and hind limb weakness; 3, hind limb paralysis; 4, hind limb paralysis and forelimb weakness; and 5, moribund. […] Radioactive incorporation was counted using a flatbed β-counter (Wallac). […]

proteolipid protein peptide PLP139-151 (HSLGKWLGHPDKF; listed as Mus musculus)
EAE clinical disease, prevention (SJL mice): failed to prevent EAE
pPLP-specific T cell proliferation and inflammatory cytokine production (splenocytes): no reduction
